Counter-ions that a name gives are not always drawn.

Here are results for 45 compounds from patent US20250262167A1, “COMPOUNDS, TARGETS AND PATHWAYS FOR MACROPHAGE MODULATION” (Massachusetts Institute of Technology, priority 2020, published 2025).

One experiment relates to human monocyte-derived macrophages (hMDMs). Briefly: High throughput phenotypic screen of macrophage activation (cell shape, Z-score).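 Note: phalloidin and DAPI stained hMDMs imaged by high-content microscopy, cell eccentricity compared with DMSO control by T-test, round morphology scored negative, elongated positive.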 To be noted: average cell-shape Z-score of the listed compounds whose targets fall in the Wiki pathway; hMDMs, 20 µM, 24 hours; M1-activating compounds (negative Z). The class given is cell-based. Details: key to Average Z-value: Z-score vs DMSO; negative = round cells, positive = elongated.
Experimental: The Z-score was calculated by T-test to measure the difference of cell morphology between treatment and control. Stimuli had negative Z-scores when induced cells to round morphology and positive scores when induced cells to elongated morphology. […] Equally mixed human monocytes isolated from fresh blood of 4 healthy donors were cultured in vitro with 50 ng/mL M-CSF for 7 days. hMDMs were trypsinized and plated on 384-well plates (5000 cells/well in 50 μL). Cells were recovered in 10 ng/mL M-CSF for 16 hrs and then treated with compounds for 24 hrs. Cells were washed, fixed and stained with Phalloidin and DAPI. The plates were scanned with a high-content microscope with six-fields per well to quantify the cell number and cell morphology. […] The cell eccentricity was calculated to measure the cell morphology. The Z-score was calculated by T-test to measure the difference in cell morphologies between each compound and DMSO control.
Cells were treated with a library of over 4000 individual compounds or drugs at the final concentration of 20 μM using the CyBi-Well simultaneous pipettor (CyBio). […] After 24 hr incubation, supernatants were removed using the microplate washer (Bioteck) and cells were fixed by adding 50 μL 16% paraformaldehyde (Thermo Scientific) with the dispenser for 20 minutes. Cells were then washed with 50 μL 1×PBS twice and incubated for 20 minutes with NucBlue and AF746 Phalloidin (Invitrogen) to stain nucleus and cytoskeleton. Cells were then washed with 50 μL 1×PBS twice and maintained in PBS for the image acquirement. Plates were read in the Opera Phenix high content screening system (PerkinElmer) to photograph cells using 20× objective in 2 fluorescent channels (Blue and FarRed). A total of 6 different fields in each well and an average of 1,000 cells were imaged per well. CellProfiler was used to identify each cell by overlapping signals from its nucleus and cytoskeleton, and calculate the eccentricity as the parameter to measure the cell morphology. The Z-score was calculated by T-test to measure the difference of cell morphology between each treatment and control. For each row of the 384-well plate, total 4 wells with first and last two columns treated with the same concentration of DMSO were combined as the control for the other 20 treatment wells in that row. In the meantime, classic M1 and M2 stimuli were added to generate the gold-standard Z-score cutoffs with M1 or M2 activation. Classic M1 stimuli include LPS (100 ng/mL), IFNγ (50 ng/mL, Peprotech), TNFα (50 ng/mL, Peprotech), or IFNγ plus TNFα. Classic M2 stimuli include IL-10 (10 ng/mL, Peprotech), IL-4 (10 ng/mL, Peprotech), or IL-13 (5 ng/mL, Peprotech).
Take `OCCN(CCO)c1nc(N2CCCCC2)c2nc(N(CCO)CCO)nc(N3CCCCC3)c2n1` [DIPYRIDAMOLE]: the “Average Z-value” is reported as −4.41.
In the case of `O=C(c1ccc(Nc2nccc(-c3cc4ccccc4s3)n2)cc1)N1CCC(N2CCCC2)CC1` [IKK 16], the “Average Z-value” is reported as −4.98.

Still in this experiment, the particulars now being: cell shape Z-score of hMDMs averaged over the compounds listed for the Wiki pathway; compounds at 20 µM for 24 hours; positive values = M2-like.
In the case of `Cl.Cl.O=S(=O)(NCCNC/C=C/c1ccc(Br)cc1)c1cccc2cnccc12` [H 89 dihydrochloride], the “Average Z-value” was found to be 7.14.
Regarding `CC[C@@H]1/C=C/C=C/C[C@H](C)[C@H](O)[C@](C)(O)C(=O)[C@H](C)[C@@H](O)[C@H](C)C(=O)[C@H](C)[C@@H](O)[C@H](C)/C=C/C(=O)O[C@H]2[C@@H](C)[C@@H](CC1)O[C@@]1(CC[C@@H](C)[C@@H](C[C@H](C)O)O1)[C@@H]2C` [oligomycin A], the “Average Z-value” stood at 7.16.
Regarding `Cc1onc(-c2ccccc2)c1-c1ccc(S(N)(=O)=O)cc1` [valdecoxib], the “Average Z-value” was 8.60.
In the case of `COc1cc(C(=O)N2CCC(N3CCN(C)CC3)CC2)ccc1Nc1ncc2c(n1)N(C)c1ccccc1C(=O)N2C` [LRRK2-IN-1], the “Average Z-value” came out at 8.88.
For the compound (−)-Epigallocatechin Gallate, the “Average Z-value” is 7.36.
Still for that read-out and setting: the figure for `CN(C)CCC=C1c2ccccc2COc2ccccc21` [Doxepine HCl] is 6.87; for `CC1(C)C(=O)C=C[C@]2(C)[C@H]3CC[C@@]4(C)[C@H](c5ccoc5)OC(=O)[C@H]5O[C@]54[C@]3(C)C=C[C@@H]12` [7-DESACETOXY-6,7-DEHYDROGEDUNIN] it is 7.92.
The same measure, in the same setting: to `CC1=C(/C=C/C(C)=C/C=C/C(C)=C/C(=O)O)C(C)(C)CCC1` [Retinoic acid] belongs 6.86.
With `O=C1Cc2c([nH]c3ccc([N+](=O)[O-])cc23)-c2ccccc2N1` [Alsterpaullone], the “Average Z-value” came to 12.55.
On to `O=C(O)c1nn(Cc2ccc(Cl)cc2Cl)c2ccccc12` [LONIDAMINE], for which the “Average Z-value” was found to be 6.13.
The same measure, in the same setting: the figure for `c1cc(-c2cnn3cc(-c4ccc(OCCN5CCCCC5)cc4)cnc23)ccn1` [Dorsomorphin dihydrochloride] is 11.09.
With `CCC[C@H](N[C@@H](C)C(=O)N1[C@H](C(=O)O)C[C@@H]2CCCC[C@@H]21)C(=O)OCC` [PERINDOPRIL ERBUMINE], the “Average Z-value” is reported as 7.27.

The same experiment, now with this note: cell shape Z-score of hMDMs treated with compound at 20 µM for 24 hours; averaged over the compounds listed for the WikiPathways pathway; negative = M1-like, positive = M2-like.
`OCCN(CCO)c1nc(N2CCCCC2)c2nc(N(CCO)CCO)nc(N3CCCCC3)c2n1` [DIPYRIDAMOLE]: the “Average Z-value” is −4.41.
Regarding `C=C1[C@@H](C)[C@H]2[C@H](Cc3ccccc3)NC(=O)[C@]23OC(=O)/C=C/[C@H](O)CCC[C@@H](C)C/C=C/[C@H]3[C@@H]1O` [cytochalasin B], the “Average Z-value” is given as −20.00.
On the same count and under the same terms, to `Cc1nc(Nc2[nH]nc3c2CN(C(=O)N[C@H](CN(C)C)c2ccccc2)C3(C)C)c2sccc2n1` [PF-3758309] belongs −4.29; to `CCCCC[C@H](O)/C=C/[C@H]1[C@H](O)CC(=O)[C@@H]1CCCCCCC(=O)O` [Alprostadil], −4.86.
Same read-out and setting: to `CCOc1nc2cccc(C(=O)OC(C)OC(=O)OC3CCCCC3)c2n1Cc1ccc(-c2ccccc2-c2nn[nH]n2)cc1` (centres unmarked) [CANDESARTAN CILEXTIL] belongs −4.32; to `O=C1Nc2ccccc2C2=NC(CN3CCN(c4ccccc4)CC3)CN12` (centres unmarked), −9.21.
Regarding `COc1c(C)c2c(c(O)c1C/C=C(\C)CCC(=O)O)C(=O)OC2` [Mycophenolic acid], the “Average Z-value” is −4.54.
Regarding `COc1cc2c(cc1OC)[C@@H]1C(=O)c3ccc4c(c3O[C@@H]1CO2)C[C@H](C(C)C)O4` [DIHYDROROTENONE], the “Average Z-value” is reported as −5.14.
For `CC[C@@]1(O)C(=O)OCc2c1cc1n(c2=O)Cc2cc3c([N+](=O)[O-])cccc3nc2-1` [Rubitecan], the “Average Z-value” was −4.17.
Still for that read-out and setting: the figure for `Cc1c[nH]c(-c2cnc(NCCNc3ccc(C#N)cn3)nc2-c2ccc(Cl)cc2Cl)n1` [CHIR-99021] is −4.52.
On the same count and under the same terms, the figure for YK 4-279 is −7.60.
Still for that read-out and setting: to `Cc1ccc(O)c(N=Nc2ccccc2)n1` [SIB 1757] belongs −7.89; to `CCCS(=O)(=O)Nc1ccc(F)c(C(=O)c2c[nH]c3ncc(-c4ccc(Cl)cc4)cc23)c1F` [Vemurafenib], −8.55.

Still in this experiment, the particulars now being: compounds regulating actin-cytoskeleton.
`COC(=O)Nc1nc2ccc(SC(C)C)cc2[nH]1` [methiazole]: the “activation state induced in the screen” value is recorded as “M1-activating”.
The same measure, in the same setting: the entry for `CCCCc1ccc2[nH]c(NC(=O)OC)nc2c1` [parbendazole] is “M1-activating”.
On the same count and under the same terms, to `CC[C@]1(O)C[C@@H]2CN(CCc3c([nH]c4ccccc34)[C@@](C(=O)OC)(c3cc4c(cc3OC)N(C)[C@H]3[C@@](O)(C(=O)OC)[C@H](OC(C)=O)[C@]5(CC)C=CCN6CC[C@]43[C@@H]65)C2)C1` [vinblastine sulfate] belongs “M2-activating”; to `COc1cc([C@@H]2c3cc4c(cc3[C@H](O)[C@H]3COC(=O)[C@H]23)OCO4)cc(OC)c1OC` [podofilox], “M2-activating”; to `COc1cc2c(c(OC)c1OC)-c1ccc(OC)c(=O)cc1[C@@H](NC(C)=O)CC2` [colchicine], “M2-activating”.
The same measure, in the same setting: the entry for `C=C1[C@@H](C)[C@H]2[C@H](Cc3ccccc3)NC(=O)[C@]23OC(=O)/C=C/[C@H](O)CCC[C@@H](C)C/C=C/[C@H]3[C@@H]1O` [cytochalasin-B] is “M1-activating”.

The experiment is the same for the next values; noted with them: known M1-/M2-activating stimuli.
As for lipopolysaccharide [LPS], the cell shape induced result is on record as “round shape”.
In the case of IL13: classic M2 stimulus, the cell shape induced result was “elongated cell shape”.
On to TNFα, for which the cell shape induced result is “round shape”.

The next experiment has as its system hMDMs differentiated into M2 by IL-4 plus IL-13. In words: Reprogramming screen and dosage response on M2-like differentiated macrophages.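 Note: human monocyte-derived macrophages held 24 h in 5 ng/mL IL-4 plus IL-13 before 24 h compound exposure, with cell shape measured from images in 384-well plates.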 To be noted: Homo sapiens, Macrophage, 24 h, read-out: EC.
Experimental: Shown are comparison of Z-scores between 5 μM or 10 μM of compounds. […] Shown are comparison of Z-scores between 5 μM or 10 μM of compounds. […] EC and fitness of 21 M1-polarizing (triangle) and 19 M2-polarizing compounds (circle) were calculated by the Michaelis-Menten equation and plotted. Data were summarized from 3 independent experiments.
Human macrophages were seeded into optical 384-well plates. Sixteen hours later, medium in M1 plates were replaced by M1 differentiating medium (complete RPMI with 50 ng/mL IFNγ and 50 ng/mL TNFα) and medium in M2 plates by M2 differentiating medium (complete RPMI with 5 ng/mL IL-4 and 5 ng/mL IL-13). After 24 hrs cell differentiation, M1 plates (M1 macrophages) and M2 plates (M2 macrophages) were treated with M2-activating compounds and M1-activating compounds respectively for 24 hrs. Two independent experiments were performed with or without replacing differentiating medium right before treatment. Cell imaging and analysis were performed as indicated above.
To investigate whether the identified compounds could reprogram or reactivate macrophages after M1- or M2-like differentiation, we rescreened the hits on M1- or M2-activated macrophages. hMDMs were activated into M2-like macrophages by IL-4 plus IL-13 or M1-like macrophages by IFNγ plus TNFα. After removing the differentiating cytokines, M2-like macrophages were treated with each of the 166 M1-activating compounds and M1-like macrophages were treated with each of the 180 M2-activating compounds at a final concentration of either 5 μM and 10 μM. 24 hours later, cell images were taken and cell shapes were quantified. […] Dosage responses were carried out with 40 commercial available compounds (21 M1-activating and 19 M2-activating) on polarized macrophages.
We also rescreened the hits on differentiated macrophages in the presence of differentiating cytokines: either IL-4 plus IL-13 or IFNγ plus TNFα.
Take `Cc1oc(=O)oc1CN1CCN(c2cc3c(cc2F)c(=O)c(C(=O)O)c2n3C(C)S2)CC1` (centres unmarked) [Prulifloxacin]: the EC (M1 Z-score cutoff) was determined as 15 µM.
Still for that read-out and setting: to `OC1(c2ccc(Cl)c(C(F)(F)F)c2)CCN(CCCC(c2ccc(F)cc2)c2ccc(F)cc2)CC1` [Penfluridol] belongs 0.169 µM; to `C[C@@]12C(=O)OC(=O)[C@]1(C)[C@H]1CC[C@@H]2O1` [Cantharidin], 0.159 µM.
As for `CCCCC[C@H](O)/C=C/[C@H]1[C@H](O)CC(=O)[C@@H]1CCCCCCC(=O)O` [Alprostadil], the EC (M1 Z-score cutoff) was 0.0562 µM.
The same measure, in the same setting: to `COc1ccc(S(=O)(=O)N(C(C)=O)c2ccccc2/C=C/c2cc[n+]([O-])cc2)cc1` [HMN214] belongs 1.48 µM.
Take `O=C1c2c(O)ccc(O)c2C(=O)c2c(NCCNCCO)ccc(NCCNCCO)c21` [MITOXANTRONE HYDROCHLORIDE]: the EC (M1 Z-score cutoff) was determined as 0.559 µM.
In the case of `O=C(Nc1ccc([N+](=O)[O-])cc1Cl)c1cc(Cl)ccc1O` [Niclosamide], the EC (M1 Z-score cutoff) worked out at 1.13 µM.

Staying with this experiment, now noted: M1-activating compounds on M2-like macrophages (IL-4 plus IL-13); EC = concentration reaching Z-score cutoff.
As for `CCC[C@H](NC(=O)/C(C#N)=C/c1cccc(Br)n1)c1ccccc1` [WP1130], the EC came out at 15 µM.
The same measure, in the same setting: to `O=C1c2ccccc2-c2nc3nonc3nc21` [SMER3] belongs 0.09398 µM.
Still for that read-out and setting: the figure for `CC(C)c1ccc(Cn2ccc3c4c(N)nc(NC5CC5)nc4ccc32)cc1.Cl.Cl` [SCH 79797 dihydrochloride] is 0.2194 µM; for Evodiamine it is 0.6799 µM.

The experiment is the same for the next values; noted with them: differentiated macrophages.
As to `CCC[C@H](NC(=O)/C(C#N)=C/c1cccc(Br)n1)c1ccccc1` [WP1130], the Category entry was “M1 (−4 for M1-activated macrophages)”.
On to `O=C1c2ccccc2-c2nc3nonc3nc21` [SMER3], for which the Category result is reported as “M1 (−4 for M1-activated macrophages)”.
Same read-out and setting: the entry for `CC(C)c1ccc(Cn2ccc3c4c(N)nc(NC5CC5)nc4ccc32)cc1.Cl.Cl` [SCH 79797 dihydrochloride] is “M1 (−4 for M1-activated macrophages)”.
